Data published in patent publication US9771370B2, “Compounds for the inhibition of indoleamine-2,3-dioxygenase” (Merck Patent GmbH, priority 2014, dated 2017).
pIC50: −log10 of the molar value.

What follows are compounds tested against Recombinant human IDO (Homo sapiens, UniProt P14902) (assay: Bridge-IT tryptophan fluorescence assay of human IDO-1 inhibition). Conditions: recombinant human IDO 7.5 nM, L-tryptophan.
Format: biochemical
In short: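 One variant ran L-Trp at 100 μM for 90 min at 37 °C. The other pre-incubated compound for 30 min at 25 °C, then ran 50 μM L-Trp for 60 min at 25 °C.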

Sequence of Recombinant human IDO (P14902 whole entry): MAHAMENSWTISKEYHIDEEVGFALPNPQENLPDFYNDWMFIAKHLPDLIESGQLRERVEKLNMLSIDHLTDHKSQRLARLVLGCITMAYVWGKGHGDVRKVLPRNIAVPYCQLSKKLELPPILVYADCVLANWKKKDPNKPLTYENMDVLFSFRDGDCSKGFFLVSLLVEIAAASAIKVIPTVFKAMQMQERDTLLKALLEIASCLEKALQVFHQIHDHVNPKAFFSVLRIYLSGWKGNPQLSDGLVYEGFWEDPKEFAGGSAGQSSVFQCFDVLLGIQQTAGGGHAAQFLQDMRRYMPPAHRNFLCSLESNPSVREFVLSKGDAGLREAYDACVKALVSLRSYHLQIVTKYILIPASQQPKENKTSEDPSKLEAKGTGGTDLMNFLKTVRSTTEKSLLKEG

pIC50, 6.00 to 7.00:
COc1ccc2c(n1)C(CCC1(F)CCCCC1)n1cncc1-2 (single isomer, unassigned) [Compound 32b, 7-[2-(1-fluorocyclohexyl)ethyl]-10-methoxy-4,6,9-triazatricyclo[6.4.0.0^[2,6]]dodeca-1(8),2,4,9,11-pentaene]
COc1ccc2c(n1)C(CC(O)C1CCC(F)(F)CC1)n1cncc1-2 (centres unmarked) [Compound 33a, 1-(4,4-difluorocyclohexyl)-2-[10-methoxy-4,6,9-triazatricyclo[6.4.0.0^[2,6]]dodeca-1(8),2,4,9,11-pentaen-7-yl]ethan-1-ol]
OC1CCC(F)(CCC2c3c(Cl)cccc3-c3cncn32)CC1 (single isomer, unassigned) [Compound 71b, 4-[2-[6-chloro-5H-imidazo[4,3-a]isoindol-5-yl]ethyl]-4-fluorocyclohexan-1-ol]
COc1ccc2c(n1)C(CC(O)C1CCC(C)(C)CC1)n1cncc1-2 (single isomer, unassigned) [Compound 40b, 1-(4,4-dimethylcyclohexyl)-2-[10-methoxy-4,6,9-triazatricyclo[6.4.0.0^[2,6]]dodeca-1(8),2,4,9,11-pentaen-7-yl]ethan-1-ol]
FC1(CCC2c3ncccc3-c3cncn32)CCC2(CC1)CC2 (single isomer, unassigned) [Compound 30a, 7-(2-{6-fluorospiro[2.5]octan-6-yl}ethyl)-4,6,9-triazatricyclo[6.4.0.0^[2,6]]dodeca-1(8),2,4,9,11-pentaene]
OC(CC1c2ncccc2-c2cncn21)C1CCC(C2(O)CC2)CC1 (single isomer, unassigned) [Compound 117b, 1-[4-[1-hydroxy-2-[4,6,9-triazatricyclo[6.4.0.0^[2,6]]dodeca-1(8),2,4,9,11-pentaen-7-yl]ethyl]cyclohexyl]cyclopropan-1-ol]
Oc1cccc2c1-c1cncn1C2CCC1(F)CCC(O)CC1 (centres unmarked) [Compound 44a, 5-(2-(1-fluoro-4-hydroxycyclohexyl)ethyl)-5H-imidazo[5,1-a]isoindol-9-ol]
OC(CC1c2nc(Cl)ccc2-c2cncn21)C1CCC(F)(F)CC1 (centres unmarked) [Compound 52b, 2-[10-chloro-4,6,9-triazatricyclo[6.4.0.0^[2,6]]dodeca-1(8),2,4,9,11-pentaen-7-yl]-1-(4,4-difluorocyclohexyl)ethan-1-ol]

pIC50, > 7.00:
COc1ccc2c(n1)C(CCC1(F)CCC(F)(F)CC1)n1cncc1-2 (single isomer, unassigned) [Compound 34a, 10-methoxy-7-[2-(1,4,4-trifluorocyclohexyl)ethyl]-4,6,9-triazatricyclo[6.4.0.0^[2,6]]dodeca-1(8),2,4,9,11-pentaene]
CC(C)(O)C1CCC(F)(CCC2c3ccccc3-c3cncn32)CC1 (single isomer, unassigned) [Compound 61d, 2-[4-fluoro-4-[2-[5H-imidazo[4,3-a]isoindol-5-yl]ethyl]cyclohexyl]propan-2-ol]
OC(CC1c2cc(F)ncc2-c2cncn21)C1CCCCC1 (single isomer, unassigned) [Compound 24d, 1-cyclohexyl-2-[10-fluoro-4,6,11-triazatricyclo[6.4.0.0^[2,6]]dodeca-1(8),2,4,9,11-pentaen-7-yl]ethan-1-ol]
NC(=O)CC1CCC(F)(CCC2c3ccccc3-c3cncn32)CC1 (single isomer, unassigned) [Compound 112d, 2-[4-fluoro-4-[2-[5H-imidazo[4,3-a]isoindol-5-yl]ethyl]cyclohexyl]acetamide]
OC(CC1c2nc(C3CC3)ccc2-c2cncn21)C1CCCCC1 (centres unmarked) [Compound 56a, 1-cyclohexyl-2-[10-cyclopropyl-4,6,9-triazatricyclo[6.4.0.0^[2,6]]dodeca-1(8),2,4,9,11-pentaen-7-yl]ethan-1-ol]
O=C(C1CCC(F)(CCC2c3c(Cl)cccc3-c3cncn32)CC1)N1CCCCC1 (single isomer, unassigned) [Compound 115a]
NS(=O)(=O)C1CCC(F)(CCC2c3ccccc3-c3cncn32)CC1 (single isomer, unassigned) [Compound 121d, 4-fluoro-4-[2-[5H-imidazo[4,3-a]isoindol-5-yl]ethyl]cyclohexane-1-sulfonamide]
OC(CC1c2nc(C3CC3)ccc2-c2cncn21)C1CCCCC1 (single isomer, unassigned) [Compound 56b, 1-cyclohexyl-2-[10-cyclopropyl-4,6,9-triazatricyclo[6.4.0.0^[2,6]]dodeca-1(8),2,4,9,11-pentaen-7-yl]ethan-1-ol]
OC(CC1c2cc(F)ncc2-c2cncn21)C1CCCCC1 (single isomer, unassigned) [Compound 24c, 1-cyclohexyl-2-[10-fluoro-4,6,11-triazatricyclo[6.4.0.0^[2,6]]dodeca-1(8),2,4,9,11-pentaen-7-yl]ethan-1-ol]

pIC50, < 6.00:
OCC1CCC(F)(CCC2c3c(Cl)cccc3-c3cncn32)CC1 (mixture of isomers) [Compound 105b, [4-[2-[6-chloro-5H-imidazo[4,3-a]isoindol-5-yl]ethyl]-4-fluorocyclohexyl]methanol]
OC1CCC(F)(CCC2c3cc(F)ncc3-c3cncn32)CC1 (single isomer, unassigned) [Compound 58d, 4-fluoro-4-[2-[10-fluoro-4,6,11-triazatricyclo[6.4.0.0^[2,6]]dodeca-1(8),2,4,9,11-pentaen-7-yl]ethyl]cyclohexan-1-ol]
OC(CC1c2nccc(F)c2-c2cncn21)C1CCCCC1 (single isomer, unassigned) [Compound 101a, 1-cyclohexyl-2-[12-fluoro-4,6,9-triazatricyclo[6.4.0.0^[2,6]]dodeca-1(8),2,4,9,11-pentaen-7-yl]ethan-1-ol]
Oc1cccc2c1-c1cncn1C2CCC1(F)CCCCC1 (single isomer, unassigned) [Compound 43a, 5-(2-(1-fluorocyclohexyl)ethyl)-5H-imidazo[5,1-a]isoindol-9-ol]
CC(C)(O)C1CCC(F)(CCC2c3ccccc3-c3cncn32)CC1 (single isomer, unassigned) [Compound 61a, 2-[4-fluoro-4-[2-[5H-imidazo[4,3-a]isoindol-5-yl]ethyl]cyclohexyl]propan-2-ol]
OC1CCC(F)(CCC2c3ncccc3-c3cncn32)CC1 (mixture of isomers) [Compound 7b, 4-fluoro-4-(2-{4,6,9-triazatricyclo[6.4.0.0^[2,6]]dodeca-1(8),2,4,9,11-pentaen-7-yl}ethyl)cyclohexan-1-ol]
NC(=O)CC1CCC(F)(CCC2c3ccccc3-c3cncn32)CC1 (single isomer, unassigned) [Compound 112c, 2-[4-fluoro-4-[2-[5H-imidazo[4,3-a]isoindol-5-yl]ethyl]cyclohexyl]acetamide]
NS(=O)(=O)C1CCC(F)(CCC2c3ccccc3-c3cncn32)CC1 (single isomer, unassigned) [Compound 121b, 4-fluoro-4-[2-[5H-imidazo[4,3-a]isoindol-5-yl]ethyl]cyclohexane-1-sulfonamide]
OC1(C2CCC(F)(CCC3c4ccccc4-c4cncn43)CC2)CC1 (single isomer, unassigned) [Compound 60c, 1-[4-fluoro-4-[2-[5H-imidazo[4,3-a]isoindol-5-yl]ethyl]cyclohexyl]cyclopropan-1-ol]
FC1(CCC2c3ccccc3-c3cncn32)CCCCC1 (single isomer, unassigned) [Compound 1a, 5-(2-(1-fluorocyclohexyl)ethyl)-5H-imidazo[5,1-a]isoindole]
FC1(F)CCC(F)(CCC2c3c(Cl)cccc3-c3cncn32)CC1 (single isomer, unassigned) [Compound 72a, 6-chloro-5-[2-(1,4,4-trifluorocyclohexyl)ethyl]-5H-imidazo[4,3-a]isoindole]
CC1(C)CCC(F)(CCC2c3ncccc3-c3cncn32)CC1 (single isomer, unassigned) [Compound 48a, 7-[2-(1-fluoro-4,4-dimethylcyclohexyl)ethyl]-4,6,9-triazatricyclo[6.4.0.0^[2,6]]dodeca-1(8),2,4,9,11-pentaene]
OC(CC1c2c(F)cncc2-c2cncn21)C1CCCCC1 (centres unmarked) [Compound 3a, 1-cyclohexyl-2-[9-fluoro-4,6,11-triazatricyclo[6.4.0.0^[2,6]]dodeca-1(8),2,4,9,11-pentaen-7-yl]ethan-1-ol]
COc1ccc2c(n1)C(CC(N)C1CCC(C)(C)CC1)n1cncc1-2 (single isomer, unassigned) [Compound 119b, 1-(4,4-dimethylcyclohexyl)-2-[10-methoxy-4,6,9-triazatricyclo[6.4.0.0^[2,6]]dodeca-1(8),2,4,9,11-pentaen-7-yl]ethan-1-amine]
OC(CC1c2nccc(F)c2-c2cncn21)C1CCCCC1 (single isomer, unassigned) [Compound 101c, 1-cyclohexyl-2-[12-fluoro-4,6,9-triazatricyclo[6.4.0.0^[2,6]]dodeca-1(8),2,4,9,11-pentaen-7-yl]ethan-1-ol]
OC(CC1c2nc(F)ccc2-c2cncn21)C1CCC(F)(F)CC1 (single isomer, unassigned) [Compound 26a, 1-(4,4-difluorocyclohexyl)-2-[10-fluoro-4,6,9-triazatricyclo[6.4.0.0^[2,6]]dodeca-1(8),2,4,9,11-pentaen-7-yl]ethan-1-ol]
OC(CC1c2nccc(F)c2-c2cncn21)C1CCCCC1 (single isomer, unassigned) [Compound 101b, 1-cyclohexyl-2-[12-fluoro-4,6,9-triazatricyclo[6.4.0.0^[2,6]]dodeca-1(8),2,4,9,11-pentaen-7-yl]ethan-1-ol]
OC(CC1c2ncccc2-c2cncn21)C1CCC(F)(F)CC1 (single isomer, unassigned) [Compound 22b, 1-(4,4-difluorocyclohexyl)-2-[4,6,9-triazatricyclo[6.4.0.0^[2,6]]dodeca-1(8),2,4,9,11-pentaen-7-yl]ethan-1-ol]
